Assay results taken from publication PMC7615501 (Journal of immunology (Baltimore, Md. : 1950), 2021).

What was measured:
CD8+ T cell clone 6C5 [1] = test: Activation of clone 6C5 by peptide-pulsed T2 cells, MIP-1β ELISA; format: cell-based, human; details: high purity (>95%) peptide preparations
CD8+ T cell clone 6C5 [2] = details: earlier work; cited from earlier work
HLA-A*0201 = HLA-A*0201 (Homo sapiens, UniProt P04439, D140Y/D185E/D98H/E176V/E277Q/G131W/G231S/I119V/I121R/I166T/I218V/L300P/L318F/N151K/N90K/P208A/P217A/Q86G/Q94H/R138H/R169H/T345S); details: earlier work; cited from earlier work

Row | Substance | Functional response of clone 6C5, retest with high purity preparations (CD8+ T cell clone 6C5 [1]) | Recognition by CD8+ T cell clone 6C5 (CD8+ T cell clone 6C5 [2]) | Binding to HLA-A*0201 (HLA-A*0201)
1 | FMAYFGVSA | inert | – | –
2 | LLSY(3-tBu)FGTPT | – | recognize | bound poorly to HLA-A*0201
3 | LTAYMLLAI | inert | – | –
